Among the data in PubChem BioAssay (NCI) are TGI and GI50 values, retold here.

Where “and” joins values, the source holds several entries; their conditions need not be identical. Equal entries are not always repeated.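 Cells were grown in 96-well plates and exposed to each compound for 48 hours at five concentrations; endpoints were interpolated linearly between bracketing concentrations, or set to the highest concentration if not reached. Abbreviation: GI50, concentration required for 50% inhibition of growth. The concentration for full growth arrest is given as TGI.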

Experiment in all cases: NCI tumour cell line growth inhibition, 48 h
In assay [1] the test system is HOP-92 NSCLC.
Assay [2] deals with KM12 colon.
Assay [3] deals with LOX IMVI melanoma.
In assay [4] the test system is NCI-H226 lung.
In assay [5] the test system is OVCAR-5 ovarian.
Assay [6] concerns SF-539 CNS.
Assay [7] concerns SK-MEL-2 melanoma.
Assay [8] concerns SNB-75 CNS.
For assay [9], the system named is SW-620 colon.
The subject of assay [10] is UACC-62 melanoma.

On to `CC1(C)OC2C(=O)OC(COCc3ccccc3)C2O1` (stereo not drawn), for which the TGI in [1], in assay [2], in [3], in assay [4], in assay [5] and in assay [6] was more than 100 µM throughout. The TGI in [7], in assay [8], in assay [9] and in assay [10] was more than 100 µM in each case.
As to `CCCCS(=N)(=O)CC[C@H](N)C(=O)O` (stereo partly drawn), the GI50 in assay [1] was 945 µM; in assay [2], more than 10000 µM; in assay [3] it was 2.12 µM; in assay [4], more than 10000 µM; in assay [5], more than 10000 µM; in assay [6] it was more than 10000 µM. Moreover, the GI50 in [7] is more than 7640 µM; in assay [8] it was more than 10000 µM; in assay [9] it was 3710 µM; in assay [10] it was more than 8090 µM. The TGI in [2] is more than 10000 µM; in assay [4] it was more than 10000 µM; in assay [5] it was more than 10000 µM; in [6] it was 5000 µM and > 10000 µM; in [7] it was more than 10000 µM; in assay [8], 5000 µM and > 10000 µM. In addition, the TGI in [9] and in assay [10] was more than 10000 µM in each case.
For `CCCCCCCCCCCCC(SCCNC(=O)CCNC(=O)C(O)C(C)(C)COP(=O)(O)OP(=O)(O)OCC1OC(n2cnc3c(N)ncnc32)C(O)C1OP(=O)(O)O)C(=O)NCC(N)=O` (stereo not drawn), the TGI in assay [1], in [2], in assay [3], in assay [4], in assay [5] and in assay [6] was more than 100 µM throughout. Besides, the TGI in [7] is more than 100 µM; in assay [8], 9.04 µM; in assay [9], more than 100 µM; in assay [10], more than 100 µM.
Consider `Cn1nnnc1[N-]Cc1ccccc1.[Au+].c1ccc([PH+](c2ccccc2)c2ccccc2)cc1`, for which the GI50 in assay [1] was 2.44 µM; in [2], 11.1 µM; in assay [3], 2.53 µM; in [4], 8.49 µM; in [5], 14.8 µM; in assay [6] it was 8.93 µM. The GI50 in assay [7] is 2.98 µM; in [8], 7.92 µM; in assay [9] it was 2.19 µM; in [10], 1.72 µM. The TGI in [1] was determined as 4.68 µM; in assay [2], 38 µM; in assay [3], 8.55 µM; in assay [4], 29.7 µM; in assay [5], 28.4 µM; in assay [6] it was 23.2 µM. Moreover, the TGI in assay [7] was determined as 9.45 µM; in [8] it was 20.5 µM; in assay [9] it was 4.92 µM; in [10] it was 7.12 µM.
`CC1=C(N2CC2)C(=O)c2nc3n(c2C1=O)CCC3O` (stereo not drawn): the TGI in assay [1] was found to be 5.72 µM; in assay [2] it was 0.699 µM; in assay [3], 1.92 µM; in assay [4] it was 2.14 µM; in assay [5], 3.84 µM; in assay [6], 0.669 µM. Further, the TGI was 1.4 µM in assay [7], 1.23 µM in assay [8], 0.726 µM in assay [9] and 0.482 µM in assay [10].
As for `C=C(CNCCO)[C@@H]1CC[C@]2(CO)CC[C@]3(C)[C@H](CC[C@@H]4[C@@]5(C)CCC(NCCc6ccc(O)cc6)C(C)(C)[C@@H]5CC[C@]43C)[C@@H]12` (stereo partly drawn), the GI50 in assay [1] is 0.822 µM; in assay [2], 1.39 µM; in assay [3], 1.18 µM; in assay [4], 1.69 µM; in assay [5], 1.7 µM; in assay [6] it was 1.52 µM. For the same compound, the GI50 was 1.66 µM in assay [7], 1.31 µM in [8], 0.468 µM in [9] and 1.75 µM in assay [10]. The TGI came out at 2.29 µM in [1]; 2.92 µM in assay [2]; 2.63 µM in assay [3]; 3.48 µM in assay [4]; 3.29 µM in [5]; 2.91 µM in assay [6]. For the same compound, the TGI in assay [7] was 3.18 µM; in [8] it was 2.63 µM; in assay [9], 1.85 µM; in assay [10] it was 3.24 µM.
As to `CCC(=O)N1C/C(=C/c2ccc(OC)cc2)C(=O)/C(=C/c2ccc(OC)cc2)C1`, the GI50 in assay [1] is 2.11 µM; in assay [2], 1.38 µM; in assay [3], 0.95 µM; in assay [4], 22.3 µM; in [5], 1.86 µM; in assay [6] it was 1.62 µM. The GI50 in assay [7] was 2.53 µM; in assay [8] it was 5.91 µM; in assay [9], 1.66 µM; in [10], 1.6 µM. Moreover, the TGI was 7.77 µM in assay [1]; 2.85 µM in assay [2]; 2.28 µM in assay [3]; more than 100 µM in assay [4]; 3.75 µM in assay [5]; 3.1 µM in assay [6]. Further, the TGI was 5.38 µM in [7], more than 100 µM in [8], 3.64 µM in assay [9] and 3.01 µM in [10].
Regarding `c1c[nH]c(Cc2ncc(Cc3cnc[nH]3)[nH]2)n1`, the TGI is more than 100 µM in [1]; more than 100 µM in assay [2]; 96.2 µM in [3]; 46.3 µM in assay [4]; 59.6 µM in assay [5]; more than 100 µM in assay [6]. In addition, the TGI in assay [7] was more than 100 µM; in assay [8], more than 100 µM; in assay [9], more than 100 µM; in assay [10], 59.5 µM.
Turning to `Nc1ccc2c(c1)[O][Sn]([c]1ccccc1)([c]1ccccc1)[O]C2=O`, the GI50 is 2.59 µM in [1]; 16.5 µM in assay [2]; 3.57 µM in assay [3]; 9.13 µM in [4]; 17.2 µM in assay [5]; 9.5 µM in [6]. In addition, the GI50 is 6.19 µM in assay [7], 7.64 µM in assay [8], 2.93 µM in [9] and 5.94 µM in assay [10]. Further, the TGI in [1] turned out to be 7.11 µM; in [2], 33.5 µM; in assay [3], 11.5 µM; in assay [4] it was 16.7 µM; in assay [5], 31.1 µM; in assay [6], 18.8 µM. The TGI in assay [7] was 17.6 µM; in assay [8] it was 18.9 µM; in assay [9] it was 8.35 µM; in assay [10], 16.3 µM.
